The source of these data is patent US20120128654A1, “Allantoin Administration for the Treatment of Neurodegenerative Disease and Neurotrauma” (UNIVERSITY OF CINCINNATI, priority 2009, published 2012).

“Also recorded” adds a separate entry of the source.

Series [1] in a line: Oral allantoin administration (gavage), plasma allantoin levels in rats. The format is in vivo, Sprague Dawley rats. The procedure: Rats also received oral allantoin via gastric gavage. Rats were firmly restrained via grasping the loose skin of the neck and back to immobilize the head. While maintaining the rat in an upright position, the gavage needle (20 G×1½″) was passed through the side of the mouth and advanced into the esophagus by following the roof of the mouth and advanced further toward the stomach. After the needle was passed to the correct length, 125 mg of allantoin, dissolved in water or water, was injected. This procedure was repeated daily for five days.
For plasma analysis of allantoin venous blood was obtained from the right ventricle (rat) and collected from repeated blood draws (African green monkey). Blood was immediately centrifuged at 10,500 rpms (this needs to be in G) for 5 minutes. Supernatant was then removed and analyzed for allantoin. […] Following a 15 minute incubation, absorbance was read on a spectrometer at 340 nm. […] Following a 10 minute incubation absorbance was once again measured at 340 nm. The final absorbance was subtracted from the absorbance following the addition of allantoinase. […]
Rats received oral allantoin or water via gavage once daily for 5 days. […] Allantoin levels in plasma were determined utilizing the enzymatic detection assay. […]

In series [2] the test system is NOX-1 expression in the SN. The series is described as follows: NOX-1 immunohistochemistry, counts of NOX-1ir cells in the SN after 6-OHDA. In kind it is in vivo, Sprague Dawley rats. Here is the method:
Rats were anesthetized prior to surgery with Equi-Thesin (0.3 ml/100 g body weight i.p.; chloral hydrate 42.5 mg/ml+sodium pentobarbital 9.72 mg/ml), their heads shaved, and then they were placed in a stereotaxic frame. Their skin was swabbed with Betadyne followed by 70% ETOH. The scalp was then opened to expose the skull. Two 1 mm holes were drilled into the skull and rats were injected in two sites in the striatum with 6-OHDA (MP Biomedicals, Solon, Ohio; 5 μg/μl 6-OHDA in 0.2% ascorbic acid, 0.9% saline solution). The coordinates for these injections were AP −1.6 mm, ML +2.4 mm, DV −4.2 mm and AP −0.2 mm, +ML 2.6 mm, DV −7.0 mm. The needle was zeroed at the skull directly above the injection site in order to target the DV coordinate. For each injection, the needle was lowered slowly to the injection site and 1 minute elapsed before injection commenced, 6-OHDA was injected at 0.5 μl/minute and at the end of the injection the needle was held in place for an additional 2 minutes prior to retraction. The wound area was cleaned with Betadine solution and the scalp was closed with surgical wound clips. This lesion paradigm results in a progressive loss of TH phenotype and frank DA cell death.
Brains were frozen on dry ice and sectioned at a 40 μm thickness using a sliding microtome. Every sixth section through the midbrain was for incubated 30 minutes in sodium citrate 10 mM at 80 degrees Celsius. Following blocking in 10% normal goat serum, tissue was incubated in primary antisera directed against NOX-1 (Santa Cruz Biotechnology, Santa Cruz, Calif., 1:1000). Following primary incubation, sections were incubated in biotinylated secondary antisera against rabbit IgG (Vector Laboratory, Burlingame, Calif., 1:200) followed by the Vector ABC detection kit employing horseradish peroxidase. Antibody labeling was visualized by exposure to 0.5 mg/ml 3,3′ diaminobenzidine (DAB) and 0.03% H2O2 in Tris buffer. Sections were mounted on subbed slides, dehydrated to xylene and coverslipped with Cytoseal.
Absolute counts of NOX-1ir cells was performed using a BX52 Olympus microscope interfaced with Microbrightfield stereological software and a Microfire CCD camera. Counts of NOX1-ir neurons were made at 20× and the sum of these values was adjusted according to the method of Abercrombie (Abercrombie, M., Estimation of nuclear populations from microtome sections, Anat. Rec. 94:239-247 (1946)). To assure that no cells were excluded or counted more than once, each cell was marked utilizing StereoInvestigator 7.0 (Microbrightfield Williston, Vt.). The total number of markers recorded by the software was utilized to estimate the total number of NOX-1ir cells (Fawcettt, et al., Dopaminergic neuronal survival and the effects of bFGF in explant, three dimensional and monolayer cultures of embryonic rat ventral mesencephalon, Exp. Brain Res. 106:275-82 (1995)).
Increased NOX-1 expression is directly linked to increased oxidative stress (Vignais, P., The superoxide-generating NADPF oxidase: structural aspects and activation mechanism, Cell Mol. Life Sci. 59:1428-59 (2002)). To determine the effect of ALL on NOX-1 expression in the SN and Red Nucleus, animals received either ALL pellets (n=6) or sham implantation (n=6). Pellet implantation surgery took place 3 days prior to intrastriatal 6-OHDA infusion. Twenty-four hours post-lesion, animals were sacrificed via intracardial saline perfusion and the SN was processed for NOX-1 immunohistochemistry.

For series [3] the following is noted: in vivo; cited from earlier work.
For series [4], the system named is cortex and hippocampus apoptosis. The note with it: twice daily i.p., neonatal MCA occlusion; cited from earlier work.
Another series has as its system retinal ganglion cells. The note with it: repeated i.p. every eight hours, optical nerve transection, adult rats; cited from earlier work.
[5] abbreviates: s.c. ALL pellets 3 days prior to 6-OHDA, twenty-four hours post-lesion, vs untreated controls.

Consider `NC(=O)NC1NC(=O)NC1=O` (centres unmarked) [allantoin], for which the plasma allantoin levels result in series [1] (rat, 125 mg oral gavage once daily for 5 days, blood two hours following final dose, vs water) is listed as “doubling; also recorded: significant increase”. Also, the negative health consequences entry in series [1] (rats, oral allantoin once daily for 5 days) is on record as “Neither the rats nor the monkeys exhibited any obvious negative health consequences”. Moreover, the “number of NOX-1ir cells in the SN” value in series [2] (s.c. ALL pellets 3 days prior to 6-OHDA, overall treatment effect) was “decreased”. Also, in series [2] (setting [5]), the “number of NOX-1ir cells in the 6-OHDA lesioned SN” value is reported as “significant decrease” and the “number of NOX-1ir cells in the intact SN” value is on record as “significant decrease”. Further, in series [2] (s.c. ALL pellets 3 days prior to 6-OHDA, twenty-four hours post-lesion, vs untreated controls, listed as ALL), the “number of NOX-1ir cells in the 6-OHDA lesioned SN” value was “significantly reduced”. Also, the “NOX-1 expression induced by 6-OHDA” value in series [2] (s.c. allantoin pellets, SN) is “significantly reduced”. Moreover, the antioxidant properties result in series [3] is reported as “antioxidant properties in vivo”.

Consider `OC[C@H]1O[C@@H](n2cnc3c(O)ncnc32)[C@H](O)[C@@H]1O` [inosine], for which, in series [4], the “Cytochrome C expression in the cortex and hippocampus” value is listed as “decreased”; the “TUNEL staining in the cortex and hippocampus” value is reported as “decreased”. For the same compound, the “sparing of retinal ganglion cells” value in the series on retinal ganglion cells is given as “significant sparing”.
